Reference: US20140066362A1, “METHOD FOR TREATING INFECTIONS BY TARGETING MICROBIAL H2S-PRODUCING ENZYMES” (NEW YORK UNIVERSITY, priority 2011, published 2014)
Read-outs that look alike come from different tables or passages of the source.

Columns and labels:
Format in all cases: cell-based
E. faecium A2373 = test: MIC of antibiotics with or without PAG/AOAA; details: for MIC: Enterococcus faecium
Procedure: (§1) E. faecalis (ATCC 29212) cultures were prepared at initial inoculums of ˜5×10^5 CFU/ml in Mueller-Hinton II Broth (cation-adjusted). Aliquots of 190 μl were dispensed to each well of a fresh set of plates, and 10 μl of an antibiotic solution (levofloxacin, meropenem, gentamicin, piperacillin, linezolid, cefepime, daptomycin, vancomycin, or chloramphemicol) were transferred to the corresponding wells in each bacterial plate (FIG. 13). For each antibiotic, the starting concentration was 2×MIC (minimum inhibitory concentration) with serial ½ dilutions. Two sets of dilutions were prepared, and to one of them 0.1 mM AOAA was added. The resulting plates were kept at 37° C. and 85% humidity for 20 hours. All nine antibiotics tested were potentiated by AOAA, with respective MICs dropped from 8-fold to 32-fold (FIG. 13).
(§2) Minimum inhibitory concentration (MIC) determination was conducted as described in Example 7, above. To assess antibiotic potentiation by AOAA and PAG, MIC was determined for nine antibiotics (levofloxacin, meropenem, gentamicin, piperacillin, linezolid, cefepime, daptomycin, vancomycin, and chloramphemicol) and four bacterial strains (E. faecium (A2373), E. faecalis ([…]), S. pneumoniae (ATCC 49619), and P. aeruginosa (PAO1)) in the presence of antibiotic alone, 1 mM PAG, 0.1 mM AOAA, or 0.5 mM PAG+0.05 mM AOAA. The smaller the MIC value, the stronger the effect of antibiotic potentiation.

P. aeruginosa PAO1 = test: MIC of antibiotics with or without PAG/AOAA; details: for MIC: Pseudomonas aeruginosa
Procedure: as §2

S. pneumoniae ATCC49619 = test: MIC of antibiotics with or without PAG/AOAA; details: for MIC: Streptococcus pneumoniae
Procedure: as §2

[1] = test system: E. coli ΔsseA (3MST-deficient) strain; details: Table 1; relative values of growth inhibition (negative numbers), ΔsseA vs wt E. coli
E. faecalis ATCC29212 = test: MIC of antibiotics with or without PAG/AOAA; details: for MIC: Enterococcus faecalis
Procedure: Bacterial cultures were prepared at initial inoculums of ˜5×10^5 CFU/ml, and aliquots of 190 μl per well were dispensed. Ten μl of the indicated antibiotic solutions were added to each well. The starting concentration for each antibiotic solution was 2×MIC, with serial ½ dilutions. Two sets of dilutions were prepared, and 0.1 mM AOAA was added to one set. The plates were kept at 37° C. and 85% humidity for 20 hours.
as §1, §2

[2] = A2373, antibiotic alone, read-out: Minimum inhibitory concentration
[3] = in the presence of 0.5 mM PAG + 0.05 mM AOAA
[4] = PAO1, antibiotic alone, read-out: Minimum inhibitory concentration
[5] = ATCC49619, antibiotic alone, read-out: Minimum inhibitory concentration
[6] = ATCC29212, antibiotic alone, read-out: Minimum inhibitory concentration

Compound: O=C(N[C@H](CO)[C@H](O)c1ccc([N+](=O)[O-])cc1)C(Cl)Cl [Chloramphenicol]
- MIC (E. faecium A2373; [2]): 8 µg/mL
- Minimum inhibitory concentration (E. faecium A2373; in the presence of 0.1 mM AOAA): 2 µg/mL
- Minimum inhibitory concentration (E. faecium A2373; [3]): 8 µg/mL
- Minimum inhibitory concentration (E. faecium A2373; in the presence of 1 mM PAG): 8 µg/mL
- MIC (P. aeruginosa PAO1; [4]): 64 µg/mL
- Minimum inhibitory concentration (P. aeruginosa PAO1; in the presence of 0.1 mM AOAA): 64 µg/mL
- Minimum inhibitory concentration (P. aeruginosa PAO1; [3]): 64 µg/mL
- Minimum inhibitory concentration (P. aeruginosa PAO1; in the presence of 1 mM PAG): 64 µg/mL
- MIC (S. pneumoniae ATCC49619; [5]): 8 µg/mL
- Minimum inhibitory concentration (S. pneumoniae ATCC49619; in the presence of 0.1 mM AOAA): 4 µg/mL
- Minimum inhibitory concentration (S. pneumoniae ATCC49619; [3]): 4 µg/mL
- Minimum inhibitory concentration (S. pneumoniae ATCC49619; in the presence of 1 mM PAG): 4 µg/mL
- ΔsseA inhibition of growth [1]: −136
- MIC (E. faecalis ATCC29212; [6]): 8 µg/mL
- Minimum inhibitory concentration (E. faecalis ATCC29212; in the presence of 0.1 mM AOAA): 0.5 µg/mL
- Minimum inhibitory concentration (E. faecalis ATCC29212; [3]): 8 µg/mL
- Minimum inhibitory concentration (E. faecalis ATCC29212; in the presence of 1 mM PAG): 8 µg/mL

Compound: gentamicin
- Minimum inhibitory concentration (E. faecium A2373; antibiotic alone): >64 µg/mL
- Minimum inhibitory concentration (E. faecium A2373; in the presence of 0.1 mM AOAA): >64 µg/mL
- Minimum inhibitory concentration (E. faecium A2373; [3]): >64 µg/mL
- Minimum inhibitory concentration (E. faecium A2373; in the presence of 1 mM PAG): >64 µg/mL
- Minimum inhibitory concentration (P. aeruginosa PAO1; antibiotic alone): 2 µg/mL
- Minimum inhibitory concentration (P. aeruginosa PAO1; in the presence of 0.1 mM AOAA): 2 µg/mL
- Minimum inhibitory concentration (P. aeruginosa PAO1; [3]): 4 µg/mL
- Minimum inhibitory concentration (P. aeruginosa PAO1; in the presence of 1 mM PAG): 2 µg/mL
- Minimum inhibitory concentration (S. pneumoniae ATCC49619; antibiotic alone): 32 µg/mL
- Minimum inhibitory concentration (S. pneumoniae ATCC49619; in the presence of 0.1 mM AOAA): 8 µg/mL
- Minimum inhibitory concentration (S. pneumoniae ATCC49619; [3]): 16 µg/mL
- Minimum inhibitory concentration (S. pneumoniae ATCC49619; in the presence of 1 mM PAG): 32 µg/mL
- Minimum inhibitory concentration (E. faecalis ATCC29212; antibiotic alone): 32 µg/mL
- Minimum inhibitory concentration (E. faecalis ATCC29212; in the presence of 0.1 mM AOAA): 1 µg/mL
- Minimum inhibitory concentration (E. faecalis ATCC29212; [3]): 4 µg/mL
- Minimum inhibitory concentration (E. faecalis ATCC29212; in the presence of 1 mM PAG): 32 µg/mL

Compound: C[C@H]1COc2c(N3CCN(C)CC3)c(F)cc3c(=O)c(C(=O)O)cn1c23 [Levoflaxacin, levofloxacin]
- MIC (E. faecium A2373; [2]): 2 µg/mL
- Minimum inhibitory concentration (E. faecium A2373; in the presence of 0.1 mM AOAA): 2 µg/mL
- Minimum inhibitory concentration (E. faecium A2373; [3]): 2 µg/mL
- Minimum inhibitory concentration (E. faecium A2373; in the presence of 1 mM PAG): 2 µg/mL
- MIC (P. aeruginosa PAO1; [4]): 0.5 µg/mL
- Minimum inhibitory concentration (P. aeruginosa PAO1; in the presence of 0.1 mM AOAA): 0.5 µg/mL
- Minimum inhibitory concentration (P. aeruginosa PAO1; [3]): 0.5 µg/mL
- Minimum inhibitory concentration (P. aeruginosa PAO1; in the presence of 1 mM PAG): 0.5 µg/mL
- MIC (S. pneumoniae ATCC49619; [5]): 2 µg/mL
- Minimum inhibitory concentration (S. pneumoniae ATCC49619; in the presence of 0.1 mM AOAA): 0.5 µg/mL
- Minimum inhibitory concentration (S. pneumoniae ATCC49619; [3]): 0.5 µg/mL
- Minimum inhibitory concentration (S. pneumoniae ATCC49619; in the presence of 1 mM PAG): 1 µg/mL
- MIC (E. faecalis ATCC29212; [6]): 1 µg/mL
- Minimum inhibitory concentration (E. faecalis ATCC29212; in the presence of 0.1 mM AOAA): 0.125 µg/mL
- Minimum inhibitory concentration (E. faecalis ATCC29212; [3]): 0.5 µg/mL
- Minimum inhibitory concentration (E. faecalis ATCC29212; in the presence of 1 mM PAG): 1 µg/mL

Compound: CN[C@H](CC(C)C)C(=O)N[C@H]1C(=O)N[C@@H](CC(N)=O)C(=O)N[C@H]2C(=O)N[C@H]3C(=O)N[C@H](C(=O)N[C@H](C(=O)O)c4cc(O)cc(O)c4-c4cc3ccc4O)[C@H](O)c3ccc(c(Cl)c3)Oc3cc2cc(c3O[C@@H]2O[C@H](CO)[C@@H](O)[C@H](O)[C@H]2O[C@H]2C[C@](C)(N)[C@H](O)[C@H](C)O2)Oc2ccc(cc2Cl)[C@H]1O [Vancomycin]
- MIC (E. faecium A2373; A2373, read-out: Minimum inhibitory concentration): > 64 µg/mL
- Minimum inhibitory concentration (E. faecium A2373; in the presence of 0.1 mM AOAA): 2 µg/mL
- Minimum inhibitory concentration (E. faecium A2373; [3]): >64 µg/mL
- Minimum inhibitory concentration (E. faecium A2373; in the presence of 1 mM PAG): >64 µg/mL
- MIC (P. aeruginosa PAO1; PAO1, read-out: Minimum inhibitory concentration): > 64 µg/mL
- Minimum inhibitory concentration (P. aeruginosa PAO1; in the presence of 0.1 mM AOAA): >64 µg/mL
- Minimum inhibitory concentration (P. aeruginosa PAO1; [3]): >64 µg/mL
- Minimum inhibitory concentration (P. aeruginosa PAO1; in the presence of 1 mM PAG): >64 µg/mL
- MIC (S. pneumoniae ATCC49619; ATCC49619, read-out: Minimum inhibitory concentration): 0.125 µg/mL
- Minimum inhibitory concentration (S. pneumoniae ATCC49619; in the presence of 0.1 mM AOAA): 0.125 µg/mL
- Minimum inhibitory concentration (S. pneumoniae ATCC49619; [3]): 0.125 µg/mL
- Minimum inhibitory concentration (S. pneumoniae ATCC49619; in the presence of 1 mM PAG): 0.125 µg/mL
- ΔsseA inhibition of growth [1]: −198
- MIC (E. faecalis ATCC29212; ATCC29212, read-out: Minimum inhibitory concentration): 2 µg/mL
- Minimum inhibitory concentration (E. faecalis ATCC29212; in the presence of 0.1 mM AOAA): 1 µg/mL
- Minimum inhibitory concentration (E. faecalis ATCC29212; [3]): 2 µg/mL
- Minimum inhibitory concentration (E. faecalis ATCC29212; in the presence of 1 mM PAG): 2 µg/mL

Compound: CC[C@H]1OC(=O)C[C@@H](O)[C@H](C)[C@@H](O[C@@H]2O[C@H](C)[C@@H](O[C@H]3C[C@@](C)(O)[C@@H](O)[C@H](C)O3)[C@H](N(C)C)[C@H]2O)[C@@H](CC=O)C[C@@H](C)C(=O)/C=C/C(C)=C/[C@@H]1CO[C@@H]1O[C@H](C)[C@@H](O)[C@@H](OC)[C@H]1OC [Tylosin]
- ΔsseA inhibition of growth [1]: −520

Compound: Acriflavine
- ΔsseA inhibition of growth [1]: −295
